# From patent US20230286919A1, “ISOQUINOLINE DERIVATIVES FOR USE IN THERAPY” (Vestlandets Innovasjonsselskap AS, priority 2020, published 2023)
# Target: T1, STAT3 dimerization (Homo sapiens, UniProt P40763)
# T1 construct: expressed in transfected cells; host or cells: 293T cells
# Experiment: Co-immunoprecipitation of HA-STAT3 and FLAG-STAT3 in 293T cells
# Type: cell-based
# Conditions: 50 μM, 24 hours, compared with S3I-201 (200 μM)
# Method: 293T cells were collected in the medium and centrifuged at 800 g x 5 min, then washed with cold PBS twice before adding 500 μl Pierce™ IP Lysis Buffer (Thermofisher Scientific, 87787), containing protease and phosphatase inhibitor cocktail without DTT (Roche, 11836153001), into the cells. Cell lysates were passed several times through a 27^1/2-gauge needle to disrupt the nuclei. 1-2 mg extracts were added with pre-cleaned 50 μL slurry of Pierce™ […] Magnetic Agarose (Thermoscientific, A36797), then supernatant were collect with magnet and immunoprecipitated (IP) at RT on a rotator for 30 min. Beads were boiled at 95° C. for 5 min followed by adding the 100 μL of 1× Non-reducing Sample Buffer (Thermofisher Scientific, 39000) into beads. The supernatant was collected with a magnet and then added 5 μL of 1M DTT (Thermoscientific, P2325) into sample prior to proceeding the immunoblotting.
# Nuclear translocation of the STAT3 dimers mediates the STAT3 transcriptional activity.
# T1 sequence (P40763 whole entry): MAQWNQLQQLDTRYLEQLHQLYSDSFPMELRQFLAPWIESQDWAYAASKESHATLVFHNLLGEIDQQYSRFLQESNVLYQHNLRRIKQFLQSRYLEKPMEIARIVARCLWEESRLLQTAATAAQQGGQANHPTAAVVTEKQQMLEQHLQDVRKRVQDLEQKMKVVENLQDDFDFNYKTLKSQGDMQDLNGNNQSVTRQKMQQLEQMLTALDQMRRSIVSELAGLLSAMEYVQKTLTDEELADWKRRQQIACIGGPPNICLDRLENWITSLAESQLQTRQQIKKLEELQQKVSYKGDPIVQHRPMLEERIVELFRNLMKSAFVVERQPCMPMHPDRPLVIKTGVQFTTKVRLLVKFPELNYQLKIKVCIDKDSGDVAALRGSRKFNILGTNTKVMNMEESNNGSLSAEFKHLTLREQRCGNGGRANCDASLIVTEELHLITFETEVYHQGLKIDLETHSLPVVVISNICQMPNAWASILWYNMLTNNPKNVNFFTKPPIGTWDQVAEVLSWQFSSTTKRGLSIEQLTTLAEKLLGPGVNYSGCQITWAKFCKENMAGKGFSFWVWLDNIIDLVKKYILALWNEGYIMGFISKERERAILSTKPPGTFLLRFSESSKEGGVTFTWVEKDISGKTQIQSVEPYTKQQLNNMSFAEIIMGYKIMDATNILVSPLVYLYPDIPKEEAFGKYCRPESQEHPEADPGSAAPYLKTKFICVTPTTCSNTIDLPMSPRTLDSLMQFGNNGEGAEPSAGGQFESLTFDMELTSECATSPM
smiles,measurement,value
"C[C@@H]1CCC(c2cc3c4c(cncc4c2)[C@@H](C)C3)=C1C=O [323-2, (15S,2R)-Delavatine A]",Dimerization of STAT3 (HA-STAT3/FLAG-STAT3),could disrupt the dimerization of STAT3
